According to US20170007610A1, “NOVEL HETEROBICYCLIC COMPOUNDS AS KAPPA OPIOID AGONISTS” (priority 2014, published 2017):
Read-outs that look alike come from different tables or passages of the source.

Key:
kappa opioid receptor [1] = target: T1, kappa opioid receptor (Mus musculus, UniProt P33534); assay: Ex-vivo KOR agonistic activity, electrically stimulated mouse vas deferens (MVD) model
T1 construct: from tissue; host or cells: mouse vas deferens (male Swiss Albino mice)
Procedure: a) Ex-Vivo KOR Agonistic Activity Testing, Using Electrically Stimulated Mouse Vas Deferens (MVD) Model:
Ex-vivo, the kappa opioid receptor agonistic activity of test compounds were tested on the electrically stimulated mouse vas deferens (MVD) preparations (Henderson et al., Br. J. Pharmacol., 46, 764-766, 1972; Portoghese et al., Life Sci. 36, 801-805, 1985) and IC50 were determined. In general, vas deferentia were taken from male Swiss Albino mice (30-40 g) and suspended in 8 ml organ baths, at 31° C., containing modified Krebs-Henseleit solution, without magnesium sulphate. Each vas deferens was equilibrated for 45 min at 2.6 mN tension and then stimulated at supramaximal voltage with five 1 ms pulses, at a frequency of 0.1 Hz. Concentration-response curves were determined by cumulative dosing. Inhibitory Concentration, 50% (IC50) values were determined by Sigmoidal dose-response (variable slope) equation, using Prizm v 6.01. The kappa opioid receptor specificity was determined by rightward shift in concentration-response curves in presence of 1 nM norbinaltorphimine (norBNI), a selective kappa opioid receptor antagonist.

kappa opioid receptor [2] = target: T2, kappa opioid receptor (Homo sapiens, UniProt P41145); assay: Invitro KOR agonistic activity, cAMP based functional assay; format: cell-based
T2 construct: grown in complete Ham's F-12 medium
T2 sequence (P41145 whole entry): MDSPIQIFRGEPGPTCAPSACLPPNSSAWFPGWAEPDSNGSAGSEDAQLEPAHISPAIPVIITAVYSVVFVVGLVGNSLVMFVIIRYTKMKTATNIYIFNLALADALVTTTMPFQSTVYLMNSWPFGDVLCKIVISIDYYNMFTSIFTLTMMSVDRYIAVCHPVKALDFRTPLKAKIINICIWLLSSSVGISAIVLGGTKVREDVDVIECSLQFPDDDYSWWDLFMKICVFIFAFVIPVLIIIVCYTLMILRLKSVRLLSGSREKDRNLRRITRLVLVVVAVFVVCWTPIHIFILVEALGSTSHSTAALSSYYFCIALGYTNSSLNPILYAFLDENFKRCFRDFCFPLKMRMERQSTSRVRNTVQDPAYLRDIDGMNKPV

T1 sequence (P33534 whole entry): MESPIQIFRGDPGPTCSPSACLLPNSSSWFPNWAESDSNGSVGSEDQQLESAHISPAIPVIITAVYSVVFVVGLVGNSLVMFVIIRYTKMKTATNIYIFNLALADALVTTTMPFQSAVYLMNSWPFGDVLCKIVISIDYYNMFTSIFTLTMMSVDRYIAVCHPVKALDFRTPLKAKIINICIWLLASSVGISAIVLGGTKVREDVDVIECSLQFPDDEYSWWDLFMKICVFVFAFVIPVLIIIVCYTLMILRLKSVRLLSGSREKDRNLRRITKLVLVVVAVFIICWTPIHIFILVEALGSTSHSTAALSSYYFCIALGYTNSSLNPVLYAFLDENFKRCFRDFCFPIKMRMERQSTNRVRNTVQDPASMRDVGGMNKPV

SMILES: CN(C(=O)COc1ccc2ccccc2n1)[C@H](CN1CC[C@H](O)C1)c1ccccc1 [Compound 1, N-((S)-2-((S)-3-hydroxypyrrolidin-1-yl)-1-phenylethyl)-N-methyl-2-(quinolin-2-yloxy)acetamide]
- IC50 (kappa opioid receptor [1]): 3.5 nM
- EC50 (kappa opioid receptor [2]): 0.022 nM

SMILES: CN(C(=O)COc1ccc2cc(NS(C)(=O)=O)ccc2n1)[C@H](CN1CC[C@H](O)C1)c1ccccc1 [Compound 2, N-((S)-2-((S)-3-hydroxypyrrolidin-1-yl)-1-phenylethyl)-N-methyl-2-((6-methylsulfonamido)quinolin-2-yloxy)acetamide]
- IC50 (kappa opioid receptor [1]): 2590 nM
- EC50 (kappa opioid receptor [2]): 4.93 nM

SMILES: CN(C(=O)COc1cc(NS(C)(=O)=O)c2ccccc2n1)[C@H](CN1CC[C@H](O)C1)c1ccccc1 [Compound 3, N-((S)-2-((S)-3-hydroxypyrrolidin-1-yl)-1-phenylethyl)-N-methyl-2-((4-methylsulfonamido)quinolin-2-yloxy)acetamide]
- IC50 (kappa opioid receptor [1]): 414 nM
- EC50 (kappa opioid receptor [2]): 0.035 nM

SMILES: CN(C(=O)COc1ccnc2ccc(NS(C)(=O)=O)cc12)[C@H](CN1CC[C@H](O)C1)c1ccccc1 [Compound 4, N-((S)-2-((S)-3-hydroxypyrrolidin-1-yl)-1-phenylethyl)-N-methyl-2-((6-methylsulfonamido)quinolin-4-yloxy)acetamide]
- IC50 (kappa opioid receptor [1]): 1500 nM
- EC50 (kappa opioid receptor [2]): 1.21 nM

SMILES: CN(C(=O)COc1ccc(NS(C)(=O)=O)c2ncccc12)[C@H](CN1CC[C@H](O)C1)c1ccccc1 [Compound 5, N-((S)-2-((S)-3-hydroxypyrrolidin-1-yl)-1-phenylethyl)-N-methyl-2-((8-methylsulfonamido)quinolin-5-yloxy)acetamide]
- IC50 (kappa opioid receptor [1]): 5.6 nM
- EC50 (kappa opioid receptor [2]): 0.013 nM

SMILES: CN(C(=O)COc1ccc([N+](=O)[O-])c2cccnc12)[C@H](CN1CC[C@H](O)C1)c1ccccc1 [Compound 7, N-((S)-2-((S)-3-hydroxypyrrolidin-1-yl)-1-phenylethyl)-N-methyl-2-((5-nitroquinolin-8-yl)oxy)acetamide]
- IC50 (kappa opioid receptor [1]): 0.84 nM
- EC50 (kappa opioid receptor [2]): 0.015 nM

SMILES: CN(C(=O)COc1ccc([N+](=O)[O-])c2c1NCCC2)[C@H](CN1CC[C@H](O)C1)c1ccccc1 [Compound 8, N-((S)-2-((S)-3-hydroxypyrrolidin-1-yl)-1-phenylethyl)-N-methyl-2-((5-nitroquinolin-1,2,3,4-tetrahydroquinolin-8-yl)oxy)acetamide]
- IC50 (kappa opioid receptor [1]): 6.2 nM
- EC50 (kappa opioid receptor [2]): 0.018 nM

SMILES: CN(C(=O)COc1nccc2ccccc12)[C@H](CN1CC[C@H](O)C1)c1ccccc1 [Compound 9, N-((S)-2-((S)-3-hydroxypyrrolidin-1-yl)-1-phenylethyl)-2-(isoquinolin-1-yloxy)-N-methylacetamide]
- IC50 (kappa opioid receptor [1]): 13 nM
- EC50 (kappa opioid receptor [2]): 0.012 nM

SMILES: CN(C(=O)COc1ncc(NS(C)(=O)=O)c2ccccc12)[C@H](CN1CC[C@H](O)C1)c1ccccc1 [Compound 10, N-((S)-2-((S)-3-hydroxypyrrolidin-1-yl)-1-phenylethyl)-N-methyl-2-((4-methylsulfonamido)isoquinolin-1-yloxy)acetamide]
- IC50 (kappa opioid receptor [1]): 54 nM
- EC50 (kappa opioid receptor [2]): 0.089 nM

SMILES: CN(C(=O)COc1cccc2c1NCCC2)[C@H](CN1CC[C@H](O)C1)c1ccccc1 [Compound 11, N-((S)-2-((S)-3-hydroxypyrrolidin-1-yl)-1-phenylethyl)-N-methyl-2-(1,2,3,4-tetrahydroquinolin-8-yloxy)acetamide]
- IC50 (kappa opioid receptor [1]): 1.6 nM
- EC50 (kappa opioid receptor [2]): 0.004 nM

SMILES: CN(C(=O)COc1cccc2c1N(S(C)(=O)=O)CCC2)[C@H](CN1CC[C@H](O)C1)c1ccccc1 [Compound 12, N-((S)-2-((S)-3-hydroxypyrrolidin-1-yl)-1-phenylethyl)-N-methyl-2-((1-(methylsulfonyl)-1,2,3,4-tetrahydroquinolin-8-yl)oxy)acetamide]
- IC50 (kappa opioid receptor [1]): 2 nM
- EC50 (kappa opioid receptor [2]): 0.005 nM

SMILES: CN1CCCc2cccc(OCC(=O)N(C)[C@H](CN3CC[C@H](O)C3)c3ccccc3)c21 [Compound 13, N-((S)-2-((S)-3-hydroxypyrrolidin-1-yl)-1-phenylethyl)-N-methyl-2-((1-methyl-1,2,3,4-tetrahydroquinolin-8-yl)oxy)acetamide]
- IC50 (kappa opioid receptor [1]): 125 nM
- EC50 (kappa opioid receptor [2]): 0.91 nM

SMILES: CN(C(=O)COc1ccc(NS(C)(=O)=O)c2c1NCCC2)[C@H](CN1CC[C@H](O)C1)c1ccccc1 [Compound 14, N-((S)-2-((S)-3-hydroxypyrrolidin-1-yl)-1-phenylethyl)-N-methyl-2-((5-(methylsulfonamido)-1,2,3,4-tetrahydroquinolin-8-yl)oxy)acetamide]
- IC50 (kappa opioid receptor [1]): 5.4 nM
- EC50 (kappa opioid receptor [2]): 0.012 nM

SMILES: CN(C(=O)COc1ccc2occc2c1)[C@H](CN1CC[C@H](O)C1)c1ccccc1 [Compound 16]
- IC50 (kappa opioid receptor [1]): 4 nM
- EC50 (kappa opioid receptor [2]): 0.04 nM

SMILES: CN(C(=O)COc1ccc2ccoc2c1)[C@H](CN1CC[C@H](O)C1)c1ccccc1 [Compound 17, 2-(benzofuran-6-yloxy)-N-((S)-2-((S)-3-hydroxypyrrolidin-1-yl)-1-phenylethyl)-N-methylacetamide]
- IC50 (kappa opioid receptor [1]): 7 nM
- EC50 (kappa opioid receptor [2]): 0.012 nM

SMILES: CN(C(=O)COc1ccc2c(c1)OCC2)[C@H](CN1CC[C@H](O)C1)c1ccccc1 [Compound 18, 2-((2,3-dihydrobenzofuran-6-yl)oxy)-N-((S)-2-((S)-3-hydroxypyrrolidin-1-yl)-1-phenylethyl)-N-methylacetamide]
- IC50 (kappa opioid receptor [1]): 8.2 nM
- EC50 (kappa opioid receptor [2]): 0.07 nM

SMILES: CN(C(=O)COc1ccc2ncccc2c1)[C@H](CN1CC[C@H](O)C1)c1ccccc1 [Compound 19, N-((S)-2-((S)-3-hydroxypyrrolidin-1-yl)-1-phenylethyl)-N-methyl-2-(quinolin-6-yloxy)acetamide]
- IC50 (kappa opioid receptor [1]): 135 nM
- EC50 (kappa opioid receptor [2]): 1.31 nM

SMILES: CN(C(=O)COc1ccc2c(c1)CCCN2)[C@H](CN1CC[C@H](O)C1)c1ccccc1 [Compound 21, N-((S)-2-((S)-3-hydroxypyrrolidin-1-yl)-1-phenylethyl)-N-methyl-2-((1,2,3,4-tetrahydroquinolin-6-yl)oxy)acetamide]
- IC50 (kappa opioid receptor [1]): 570 nM
- EC50 (kappa opioid receptor [2]): 1.23 nM

SMILES: CNS(=O)(=O)Nc1ccc(OCC(=O)N(C)[C@H](CN2CC[C@H](O)C2)c2ccccc2)c2cccnc12 [Compound 23, N-((S)-2-((S)-3-hydroxypyrrolidin-1-yl)-1-phenylethyl)-N-methyl-2-((8-((N-methylsulfamoyl)amino)quinolin-5-yl)oxy)-acetamide]
- IC50 (kappa opioid receptor [1]): 8.4 nM
- EC50 (kappa opioid receptor [2]): 0.017 nM

SMILES: CN(C(=O)COc1ccc(NS(=O)(=O)N(C)C)c2ncccc12)[C@H](CN1CC[C@H](O)C1)c1ccccc1 [Compound 24, 2-((8-((N,N-dimethylsulfamoyl)amino)quinolin-5-yl)oxy)-N-((S)-2-((S)-3-hydroxypyrrolidin-1-yl)-1-phenylethyl)-N-methyl-acetamide]
- IC50 (kappa opioid receptor [1]): 5 nM
- EC50 (kappa opioid receptor [2]): 0.055 nM

SMILES: CCN(CC)S(=O)(=O)Nc1ccc(OCC(=O)N(C)[C@H](CN2CC[C@H](O)C2)c2ccccc2)c2cccnc12 [Compound 25, 2-((8-((N,N-diethylsulfamoyl)amino)quinolin-5-yl)oxy)-N-((S)-2-((S)-3-hydroxypyrrolidin-1-yl)-1-phenylethyl)-N-methyl-acetamide]
- IC50 (kappa opioid receptor [1]): 8.1 nM
- EC50 (kappa opioid receptor [2]): 0.003 nM

SMILES: CN(C(=O)COc1ccc(NS(=O)(=O)CCl)c2ncccc12)[C@H](CN1CC[C@H](O)C1)c1ccccc1 [Compound 26]
- IC50 (kappa opioid receptor [1]): 29 nM
- EC50 (kappa opioid receptor [2]): 0.012 nM

SMILES: CN(C(=O)COc1ccc(NS(C)(=O)=O)c2nccnc12)[C@H](CN1CC[C@H](O)C1)c1ccccc1 [Compound 27, N-((S)-2-((S)-3-hydroxypyrrolidin-1-yl-)-1-phenylethyl)-N-methyl-2-((8-(methylsulfonamido)quinoxain-5-yl)oxy)acetamide]
- IC50 (kappa opioid receptor [1]): 169 nM
- EC50 (kappa opioid receptor [2]): 2.11 nM

SMILES: CN(C(=O)COc1ncc2ccc(Br)cc2n1)[C@H](CN1CC[C@H](O)C1)c1ccccc1 [Compound 28, 2-((7-bromoquinazolin-2-yl)oxy)-N-((S)-2-((S)-3-hydroxypyrrolidin-1-yl)-1-phenylethyl)-N-methylacetamide]
- IC50 (kappa opioid receptor [1]): 1490 nM
- EC50 (kappa opioid receptor [2]): 1.42 nM

SMILES: CN(C(=O)COc1cccc2c1NCC2)[C@H](CN1CC[C@H](O)C1)c1ccccc1 [Compound 29, N-((S)-2-((S)-3-hydroxypyrrolidin-1-yl-)-1-phenylethyl)-2-(indolin-7-yloxy)-N-methylacetamide]
- IC50 (kappa opioid receptor [1]): 147 nM
- EC50 (kappa opioid receptor [2]): 0.11 nM

SMILES: CN(C(=O)COc1ccc2c3c1CCCN3S(=O)(=O)N2)[C@H](CN1CC[C@H](O)C1)c1ccccc1 [Compound 30]
- IC50 (kappa opioid receptor [1]; electrically stimulated mouse vas deferens preparation, cumulative dosing, read-out: Ex-vivo IC50): 9400 nM
- EC50 (kappa opioid receptor [2]): 900 nM

SMILES: CC(=O)N1CCCc2c(OCC(=O)N(C)[C@H](CN3CC[C@H](O)C3)c3ccccc3)ccc(NS(C)(=O)=O)c21 [Compound 31, 2-((l-acetyl-8-(methylsulfonamido)-1,2,3,4-tetrahydroquinolin-5-yl)oxy)-N-((S)-2-((S)-3-hydroxypyrrolidin-1-yl)-1-phenylethyl)-N-methylacetamide]
- IC50 (kappa opioid receptor [1]): 118 nM
- EC50 (kappa opioid receptor [2]): 0.51 nM

SMILES: CN(C(=O)COc1ccc(NC(=O)CN)c2ncccc12)[C@H](CN1CC[C@H](O)C1)c1ccccc1 [Compound 33, 2-((8-(2-aminoacetamido)quinolin-5-yl)oxy)-N-((S)-2-((S)-3-hydroxypyrrolidin-1-yl)-1-phenylethyl)-N-methylacetamide]
- IC50 (kappa opioid receptor [1]): 8.4 nM
- EC50 (kappa opioid receptor [2]): 0.006 nM

SMILES: CN(C(=O)COc1ccc(NC(=O)CO)c2ncccc12)[C@H](CN1CC[C@H](O)C1)c1ccccc1 [Compound 34, 2-((8-(2-hydroxyacetamido)quinolin-5-yl)oxy)-N-((S)-2-((S)-3-hydroxypyrrolidin-1-yl)-1-phenylethyl)-N-methylacetamide]
- IC50 (kappa opioid receptor [1]): 258 nM
- EC50 (kappa opioid receptor [2]): 0.49 nM
